# Measured values taken from article PMC10176470, “Engaging a Non-catalytic Cysteine Residue Drives Potent and Selective Inhibition of Caspase-6” (Journal of the American Chemical Society, 2023).
# Experiments:
# Assay type in all cases: cell-based
# [1] = molecular target: proteins of HEK293T cells transiently overexpressing caspase-6 (Homo sapiens, UniProt Q06830); conditions: exp_ref Probe; protein PRDX1 (Q06830); analysis C6
# [2] = molecular target: T1, proteins of HEK293T cells transiently overexpressing caspase-6 (Homo sapiens, UniProt P04075); conditions: protein ALDOA (P04075)
# T1 sequence (P04075 1-364): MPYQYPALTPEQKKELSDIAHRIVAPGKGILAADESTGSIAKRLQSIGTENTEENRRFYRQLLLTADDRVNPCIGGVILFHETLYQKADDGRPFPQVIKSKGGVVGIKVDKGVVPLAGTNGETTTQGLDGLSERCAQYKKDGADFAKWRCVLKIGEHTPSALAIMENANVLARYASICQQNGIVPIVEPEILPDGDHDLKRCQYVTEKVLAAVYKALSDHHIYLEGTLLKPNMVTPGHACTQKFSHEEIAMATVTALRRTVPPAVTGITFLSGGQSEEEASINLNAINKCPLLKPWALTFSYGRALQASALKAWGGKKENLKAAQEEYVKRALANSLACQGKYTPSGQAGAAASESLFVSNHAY
# [3] = molecular target: T2, proteins of HEK293T cells transiently overexpressing caspase-6 (Homo sapiens, UniProt P27824); conditions: protein CANX (P27824)
# T2 sequence (P27824 21-592): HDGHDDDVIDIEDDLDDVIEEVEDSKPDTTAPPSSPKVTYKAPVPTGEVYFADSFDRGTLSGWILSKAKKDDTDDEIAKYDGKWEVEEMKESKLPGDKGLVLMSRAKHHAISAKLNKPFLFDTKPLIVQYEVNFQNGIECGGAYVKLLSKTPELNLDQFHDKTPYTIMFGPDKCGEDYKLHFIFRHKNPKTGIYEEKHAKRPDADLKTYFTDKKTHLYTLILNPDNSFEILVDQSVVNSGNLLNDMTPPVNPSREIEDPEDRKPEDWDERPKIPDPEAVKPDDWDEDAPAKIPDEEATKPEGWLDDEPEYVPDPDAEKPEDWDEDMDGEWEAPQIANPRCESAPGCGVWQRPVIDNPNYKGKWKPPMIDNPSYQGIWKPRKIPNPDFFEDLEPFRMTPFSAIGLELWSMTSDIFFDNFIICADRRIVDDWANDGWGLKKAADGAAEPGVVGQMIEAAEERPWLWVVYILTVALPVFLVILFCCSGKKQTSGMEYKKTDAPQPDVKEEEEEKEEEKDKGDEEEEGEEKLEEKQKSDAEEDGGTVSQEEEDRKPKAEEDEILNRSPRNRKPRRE
# [4] = molecular target: proteins of HEK293T cells transiently overexpressing caspase-6 (Homo sapiens, UniProt O75874); conditions: exp_ref Probe; protein IDH1 (O75874); analysis C6
# [5] = molecular target: proteins of HEK293T cells transiently overexpressing caspase-6 (Homo sapiens, UniProt P04264); conditions: Probe; protein KRT1 P04264
# [6] = molecular target: proteins of HEK293T cells transiently overexpressing caspase-6 (Homo sapiens, UniProt Q12905); conditions: exp_ref Probe; protein ILF2 (Q12905); analysis C6
# [7] = molecular target: proteins of HEK293T cells transiently overexpressing caspase-6 (Homo sapiens, UniProt O75390); conditions: exp_ref Probe; protein CS (O75390); analysis C6
# [8] = molecular target: proteins of HEK293T cells transiently overexpressing caspase-6 (Homo sapiens, UniProt P08758); conditions: exp_ref Probe; protein ANXA5 (P08758); analysis C6
# [9] = molecular target: proteins of HEK293T cells transiently overexpressing caspase-6 (Homo sapiens, UniProt Q9P258); conditions: exp_ref Probe; protein RCC2 (Q9P258); analysis C6
# [10] = molecular target: proteins of HEK293T cells transiently overexpressing caspase-6 (Homo sapiens, UniProt Q92841); conditions: exp_ref Probe; protein DDX17 (Q92841); analysis C6
# [11] = molecular target: proteins of HEK293T cells transiently overexpressing caspase-6 (Homo sapiens, UniProt P49327); conditions: exp_ref Probe; protein FASN (P49327); analysis C6
# [12] = molecular target: proteins of HEK293T cells transiently overexpressing caspase-6 (Homo sapiens, UniProt P14868); conditions: exp_ref Probe; protein DARS (P14868); analysis C6
# [13] = molecular target: proteins of HEK293T cells transiently overexpressing caspase-6 (Homo sapiens, UniProt P02786); conditions: protein TFRC (P02786)
# [14] = molecular target: proteins of HEK293T cells transiently overexpressing caspase-6 (Homo sapiens, UniProt P25786); conditions: Probe; protein PSMA1 P25786
# [15] = molecular target: T3, proteins of HEK293T cells transiently overexpressing caspase-6 (Homo sapiens, UniProt P26583)
# T3 sequence (P26583 1-209): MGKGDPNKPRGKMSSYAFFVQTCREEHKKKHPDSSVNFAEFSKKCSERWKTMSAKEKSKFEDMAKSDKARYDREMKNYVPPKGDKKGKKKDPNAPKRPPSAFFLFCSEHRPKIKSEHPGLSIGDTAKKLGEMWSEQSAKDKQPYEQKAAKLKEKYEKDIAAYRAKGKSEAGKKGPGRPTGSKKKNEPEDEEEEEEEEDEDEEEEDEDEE
# Sequence of proteins of HEK293T cells transiently overexpressing caspase-6 (Homo sapiens, UniProt P02786) (P02786 whole entry): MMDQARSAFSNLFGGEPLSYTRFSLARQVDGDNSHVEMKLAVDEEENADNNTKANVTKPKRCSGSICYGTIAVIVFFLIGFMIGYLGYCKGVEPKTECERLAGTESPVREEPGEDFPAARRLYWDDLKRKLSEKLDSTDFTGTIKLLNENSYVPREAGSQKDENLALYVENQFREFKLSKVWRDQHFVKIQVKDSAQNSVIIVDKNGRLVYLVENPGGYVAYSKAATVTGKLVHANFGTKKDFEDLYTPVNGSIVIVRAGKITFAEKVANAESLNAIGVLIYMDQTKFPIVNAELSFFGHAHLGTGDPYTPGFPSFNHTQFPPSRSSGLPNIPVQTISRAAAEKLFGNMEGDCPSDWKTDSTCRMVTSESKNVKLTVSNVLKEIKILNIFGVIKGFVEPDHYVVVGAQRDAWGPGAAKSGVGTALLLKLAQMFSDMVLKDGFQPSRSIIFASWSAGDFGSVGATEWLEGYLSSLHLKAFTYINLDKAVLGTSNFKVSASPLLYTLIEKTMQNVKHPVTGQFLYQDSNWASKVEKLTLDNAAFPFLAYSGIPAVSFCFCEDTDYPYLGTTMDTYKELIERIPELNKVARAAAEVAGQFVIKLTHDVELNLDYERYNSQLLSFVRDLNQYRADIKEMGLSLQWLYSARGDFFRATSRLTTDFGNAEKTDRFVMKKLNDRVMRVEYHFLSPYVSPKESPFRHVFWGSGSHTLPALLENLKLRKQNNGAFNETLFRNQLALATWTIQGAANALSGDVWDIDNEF
# Sequence of proteins of HEK293T cells transiently overexpressing caspase-6 (Homo sapiens, UniProt O75390) (O75390 28-466): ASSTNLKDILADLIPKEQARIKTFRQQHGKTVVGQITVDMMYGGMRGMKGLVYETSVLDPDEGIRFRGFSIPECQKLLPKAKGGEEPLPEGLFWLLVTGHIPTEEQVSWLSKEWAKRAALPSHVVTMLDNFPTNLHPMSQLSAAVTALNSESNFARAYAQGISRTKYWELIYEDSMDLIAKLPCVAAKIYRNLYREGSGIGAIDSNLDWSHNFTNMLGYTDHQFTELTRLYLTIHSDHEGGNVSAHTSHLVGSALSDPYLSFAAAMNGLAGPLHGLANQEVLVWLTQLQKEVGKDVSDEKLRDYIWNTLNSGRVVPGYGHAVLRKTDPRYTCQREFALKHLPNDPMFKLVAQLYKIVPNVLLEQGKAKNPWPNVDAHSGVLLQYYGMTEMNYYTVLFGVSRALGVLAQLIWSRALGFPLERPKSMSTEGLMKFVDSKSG
# Sequence of proteins of HEK293T cells transiently overexpressing caspase-6 (Homo sapiens, UniProt P49327) (P49327 whole entry): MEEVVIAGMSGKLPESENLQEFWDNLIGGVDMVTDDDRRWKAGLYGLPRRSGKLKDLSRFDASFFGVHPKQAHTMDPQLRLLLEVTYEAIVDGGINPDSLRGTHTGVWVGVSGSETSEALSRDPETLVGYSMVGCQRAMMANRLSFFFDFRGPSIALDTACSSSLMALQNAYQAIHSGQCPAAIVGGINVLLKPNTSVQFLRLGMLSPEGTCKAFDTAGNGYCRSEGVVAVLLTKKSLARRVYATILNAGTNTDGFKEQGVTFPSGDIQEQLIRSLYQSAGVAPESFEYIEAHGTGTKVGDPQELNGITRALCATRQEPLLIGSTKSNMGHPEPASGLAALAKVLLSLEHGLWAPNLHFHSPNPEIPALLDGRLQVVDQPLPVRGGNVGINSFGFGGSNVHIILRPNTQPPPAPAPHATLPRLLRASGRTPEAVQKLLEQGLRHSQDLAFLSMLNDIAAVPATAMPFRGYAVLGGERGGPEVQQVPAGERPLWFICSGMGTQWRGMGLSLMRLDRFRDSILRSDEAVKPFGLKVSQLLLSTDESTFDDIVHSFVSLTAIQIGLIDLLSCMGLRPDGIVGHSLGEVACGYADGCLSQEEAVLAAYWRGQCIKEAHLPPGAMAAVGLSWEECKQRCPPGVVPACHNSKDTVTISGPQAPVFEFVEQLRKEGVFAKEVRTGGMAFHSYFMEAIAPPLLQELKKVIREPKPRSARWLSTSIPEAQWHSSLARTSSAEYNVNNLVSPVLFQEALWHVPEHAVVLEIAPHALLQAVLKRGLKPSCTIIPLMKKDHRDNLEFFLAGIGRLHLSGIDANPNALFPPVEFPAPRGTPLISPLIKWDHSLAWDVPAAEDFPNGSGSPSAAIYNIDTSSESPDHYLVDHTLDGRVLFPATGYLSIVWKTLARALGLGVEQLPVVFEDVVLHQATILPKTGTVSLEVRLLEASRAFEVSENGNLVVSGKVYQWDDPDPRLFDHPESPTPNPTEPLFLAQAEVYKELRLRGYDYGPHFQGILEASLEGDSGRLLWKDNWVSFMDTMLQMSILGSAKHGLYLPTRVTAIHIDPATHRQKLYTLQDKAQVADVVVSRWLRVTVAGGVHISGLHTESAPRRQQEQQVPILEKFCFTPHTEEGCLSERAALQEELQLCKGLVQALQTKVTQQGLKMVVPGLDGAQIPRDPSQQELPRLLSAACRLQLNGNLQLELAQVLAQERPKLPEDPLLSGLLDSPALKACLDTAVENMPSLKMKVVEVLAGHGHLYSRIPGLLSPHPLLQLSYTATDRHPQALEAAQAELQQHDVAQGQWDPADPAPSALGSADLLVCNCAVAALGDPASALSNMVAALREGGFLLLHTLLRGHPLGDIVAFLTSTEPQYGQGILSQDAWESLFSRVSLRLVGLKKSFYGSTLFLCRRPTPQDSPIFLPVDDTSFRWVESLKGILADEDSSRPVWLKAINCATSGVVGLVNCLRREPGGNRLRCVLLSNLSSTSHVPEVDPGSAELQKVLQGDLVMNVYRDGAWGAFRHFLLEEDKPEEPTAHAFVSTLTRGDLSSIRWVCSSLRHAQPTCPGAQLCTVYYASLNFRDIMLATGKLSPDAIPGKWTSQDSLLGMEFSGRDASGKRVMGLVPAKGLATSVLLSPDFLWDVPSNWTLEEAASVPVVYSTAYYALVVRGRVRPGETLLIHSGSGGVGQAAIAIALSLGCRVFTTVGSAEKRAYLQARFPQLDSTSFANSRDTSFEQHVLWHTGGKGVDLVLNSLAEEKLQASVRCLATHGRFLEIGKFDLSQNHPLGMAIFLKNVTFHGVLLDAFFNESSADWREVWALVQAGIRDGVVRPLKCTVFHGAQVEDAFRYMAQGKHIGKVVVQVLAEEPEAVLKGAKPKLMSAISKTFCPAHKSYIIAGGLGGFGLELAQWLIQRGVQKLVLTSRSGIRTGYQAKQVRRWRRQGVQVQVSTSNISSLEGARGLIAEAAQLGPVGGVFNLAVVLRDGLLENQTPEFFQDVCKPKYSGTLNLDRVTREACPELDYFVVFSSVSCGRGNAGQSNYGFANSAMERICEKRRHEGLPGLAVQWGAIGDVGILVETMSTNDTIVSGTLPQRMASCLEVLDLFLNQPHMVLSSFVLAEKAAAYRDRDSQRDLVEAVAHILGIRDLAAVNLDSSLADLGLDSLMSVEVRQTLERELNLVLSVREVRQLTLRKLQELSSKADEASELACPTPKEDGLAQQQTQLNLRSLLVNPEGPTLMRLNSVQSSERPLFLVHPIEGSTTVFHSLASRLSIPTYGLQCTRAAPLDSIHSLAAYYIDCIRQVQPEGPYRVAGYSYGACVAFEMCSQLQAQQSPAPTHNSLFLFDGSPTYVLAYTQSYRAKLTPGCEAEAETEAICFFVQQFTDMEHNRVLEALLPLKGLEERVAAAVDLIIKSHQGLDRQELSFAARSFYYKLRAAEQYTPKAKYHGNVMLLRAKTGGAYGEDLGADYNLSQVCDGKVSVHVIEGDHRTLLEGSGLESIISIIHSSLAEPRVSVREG
# Sequence of proteins of HEK293T cells transiently overexpressing caspase-6 (Homo sapiens, UniProt P08758) (P08758 whole entry): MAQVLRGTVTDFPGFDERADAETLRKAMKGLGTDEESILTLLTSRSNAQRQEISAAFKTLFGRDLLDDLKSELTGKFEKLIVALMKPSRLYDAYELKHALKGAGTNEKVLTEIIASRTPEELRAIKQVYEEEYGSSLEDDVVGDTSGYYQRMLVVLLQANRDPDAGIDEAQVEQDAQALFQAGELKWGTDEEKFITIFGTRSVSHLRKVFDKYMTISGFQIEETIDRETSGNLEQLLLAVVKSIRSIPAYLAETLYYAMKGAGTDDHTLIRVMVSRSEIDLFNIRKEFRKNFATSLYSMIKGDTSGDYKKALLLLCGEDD
# Sequence of proteins of HEK293T cells transiently overexpressing caspase-6 (Homo sapiens, UniProt O75874) (O75874 whole entry): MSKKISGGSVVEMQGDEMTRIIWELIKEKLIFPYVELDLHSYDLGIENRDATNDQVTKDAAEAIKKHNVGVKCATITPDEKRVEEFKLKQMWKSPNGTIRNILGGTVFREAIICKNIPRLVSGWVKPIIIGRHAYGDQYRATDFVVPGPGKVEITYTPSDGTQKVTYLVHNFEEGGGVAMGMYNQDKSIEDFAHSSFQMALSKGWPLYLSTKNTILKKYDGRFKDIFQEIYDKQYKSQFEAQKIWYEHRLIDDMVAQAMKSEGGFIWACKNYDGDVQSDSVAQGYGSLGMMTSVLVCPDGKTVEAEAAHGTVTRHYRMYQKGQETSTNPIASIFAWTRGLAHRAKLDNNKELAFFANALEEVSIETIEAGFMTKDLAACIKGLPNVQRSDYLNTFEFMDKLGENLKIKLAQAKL
# Sequence of proteins of HEK293T cells transiently overexpressing caspase-6 (Homo sapiens, UniProt P04264) (P04264 whole entry): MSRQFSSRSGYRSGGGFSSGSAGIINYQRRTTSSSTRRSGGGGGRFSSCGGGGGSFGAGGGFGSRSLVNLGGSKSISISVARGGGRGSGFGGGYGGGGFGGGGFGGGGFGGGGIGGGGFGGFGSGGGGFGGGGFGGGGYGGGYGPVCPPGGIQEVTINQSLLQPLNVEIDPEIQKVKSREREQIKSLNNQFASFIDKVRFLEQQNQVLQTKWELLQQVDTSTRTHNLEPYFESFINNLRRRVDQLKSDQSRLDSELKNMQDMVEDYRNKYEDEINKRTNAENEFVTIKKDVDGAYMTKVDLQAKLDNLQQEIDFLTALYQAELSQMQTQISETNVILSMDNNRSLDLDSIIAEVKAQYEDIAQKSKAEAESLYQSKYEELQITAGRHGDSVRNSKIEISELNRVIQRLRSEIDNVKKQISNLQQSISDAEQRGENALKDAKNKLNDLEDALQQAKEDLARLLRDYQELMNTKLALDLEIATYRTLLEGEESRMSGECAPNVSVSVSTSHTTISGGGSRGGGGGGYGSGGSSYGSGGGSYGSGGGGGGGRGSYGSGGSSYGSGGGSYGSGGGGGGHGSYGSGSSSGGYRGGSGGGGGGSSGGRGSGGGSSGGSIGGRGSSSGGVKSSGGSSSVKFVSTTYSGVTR
smiles,measurement,setting,value
C#CCOc1ccc([C@@H]2C[C@@H](C(=O)Nc3ccc(OC(F)(F)F)cc3)CN(S(=O)(=O)C=C)C2)cc1 (relative stereo) [13-t],enrich.exp.med,[1],-0.1545
same,enrich.exp.med,"[2]; exp_ref Probe, analysis C6",0.8107
same,enrich.exp.med.lin,[2],1.754
same,enrich.exp.med.log2,[2],0.8107
same,enrich.exp.med,"[3]; exp_ref Probe, analysis C6",0.4691
same,enrich.exp.med.lin,[3],1.384
same,enrich.exp.med.log2,[3],0.4691
same,enrich.exp.med,[4],-0.2162
same,enrich.exp.med,[5],-8.014
same,enrich.exp.med,[6],0.9081
same,enrich.exp.med,[7],-0.1126
same,enrich.exp.med,[8],0.2384
same,enrich.exp.med,[9],0.2232
same,enrich.exp.med,[10],0.3365
same,enrich.exp.med,[11],-0.2577
same,enrich.exp.med,[12],0.4884
same,enrich.exp.med,"[13]; exp_ref Probe, analysis C6",0.8901
same,enrich.exp.med.lin,[13],1.853
same,enrich.exp.med.log2,[13],0.8901
same,enrich.exp.med,[14],-2.151
same,enrich.exp.med,"[15]; Probe, protein HMGB2 P26583",-1.024
same,enrich.exp.med.lin,[15]; protein HMGB2 (P26583),0.4916
same,enrich.exp.med.log2,[15]; protein HMGB2 (P26583),-1.024
